In paper PMC9144581, “In Vitro Anti-Proliferative, and Kinase Inhibitory Activity of Phenanthroindolizidine Alkaloids Isolated from Tylophora indica” (Plants, 2022) one finds IC50 data, which are given here for 10 compounds.

Like-named read-outs stand apart in the source and are kept apart here. Some results are limits rather than exact numbers.

Test [1] has as its system HCT-116. Put plainly: MTT anti-proliferative assay, HCT-116. Format: cell-based, Human. The settings on record: read-out: IC50 ± SD, HCT-116. The method, then: (§1) The cells proliferations were determined by MTT [3-(4,5-dimethylthiazol-2-yl)-2,5-diphenyltetrazolium bromide] assays, wherein MTT color intensity was directly associated with the number of healthy, living cells. The three cancer cell lines, i.e., MCF-7, Michigan Cancer Foundation-7; HepG2, Human hepatocellular carcinoma; and HCT-116, Human colorectal carcinoma, were obtained from the Laboratory of Parasitology, Faculty of Medicine, Universitas Gadjah Mada Indonesia. The cells were cultured in DMEM (Dulbecco’s Modified Eagle’s Medium) (Gibco, Waltham, MA, USA) with 10% Fetal Bovine Serum (FBS, Gibco), 2% Sodium bicarbonate (NaHCO3, Gibco), and HEPES (4-2(2-hydroxyethyl)-1-piperazine ethane sulfonic acid) (Invitrogen). The cell lines were maintained at 37 °C in a humidified incubator containing 5% CO2. The IC50 values as µM were determined after 48-h of compounds incubations with the cells. The assays were determined as mean ± SD: Standard Deviation (n = 3) (p < 0.005, compared with the standard value).
Background: Tetrazolium dyes change colour on reduction, which living cells bring about.

Test [2] relates to HepG2. Put plainly: MTT anti-proliferative assay, HepG2. Format: cell-based, Human. The following applies: read-out: IC50 ± SD, HepG2. As for the experimental part:
as §1

Test [3] concerns MCF-7. Put plainly: MTT anti-proliferative assay, MCF-7. The following applies: read-out: IC50 ± SD, MCF-7. It counts as cell-based. As for the experimental part: as §1
Test [4] has as its target T1, Aurora-A (Homo sapiens, UniProt O14965).
T1 construct: purchased Sigma-Aldrich
T1 sequence (O14965 1-403): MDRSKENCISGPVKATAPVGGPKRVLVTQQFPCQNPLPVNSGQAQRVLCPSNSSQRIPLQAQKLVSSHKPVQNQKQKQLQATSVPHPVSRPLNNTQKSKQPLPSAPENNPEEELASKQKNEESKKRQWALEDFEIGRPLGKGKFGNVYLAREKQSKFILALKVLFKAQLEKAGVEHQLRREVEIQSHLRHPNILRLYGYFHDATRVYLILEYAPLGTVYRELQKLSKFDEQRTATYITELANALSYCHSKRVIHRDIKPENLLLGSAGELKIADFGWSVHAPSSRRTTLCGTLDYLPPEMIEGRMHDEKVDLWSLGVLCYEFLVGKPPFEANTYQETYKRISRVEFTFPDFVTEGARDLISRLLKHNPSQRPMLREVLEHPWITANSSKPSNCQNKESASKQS
Put plainly: Radiometric protein kinase assay, Aurora-A. It counts as biochemical. The method, then: (§2) The radiometric protein kinase assays (RPKA) were used to investigate the kinase inhibitory effects of the isolated compounds. The method was dependent on the incorporation of radioactive ^33P isotope with ATP, and the percentage of phosphorylation was determined using the microplate-scintillation counter (Microbeta, Wallac, Finland) method. The half-maximal inhibitory concentration (IC50) values of compounds were measured by a microplate-scintillation counter. The control mixture (without peptide substrate) measures endogenous phosphorylation of proteins in the Protein Kinase Sample by-^33P-ATP. The purified protein kinases were used as positive controls for the assay (Sigma-Aldrich, St. Louis, MO, USA).

Test [5] deals with T2, Aurora-B (Homo sapiens, UniProt Q96GD4).
T2 construct: purchased Sigma-Aldrich
T2 sequence (Q96GD4 whole entry): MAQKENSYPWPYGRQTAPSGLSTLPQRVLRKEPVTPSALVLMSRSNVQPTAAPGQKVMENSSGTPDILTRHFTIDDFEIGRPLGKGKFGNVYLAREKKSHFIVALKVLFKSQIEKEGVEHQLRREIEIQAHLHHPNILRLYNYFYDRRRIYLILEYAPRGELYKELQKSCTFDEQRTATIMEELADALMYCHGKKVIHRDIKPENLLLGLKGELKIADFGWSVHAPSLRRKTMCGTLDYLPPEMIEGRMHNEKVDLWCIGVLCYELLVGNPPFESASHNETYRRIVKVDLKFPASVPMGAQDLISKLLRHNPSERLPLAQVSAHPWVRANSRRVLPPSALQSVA
Put plainly: Radiometric protein kinase assay, Aurora-B. It counts as biochemical. As for the experimental part:
as §2

Setting [6] is: MTT assay, 48-h incubation, n = 3.
Where [7] appears, read: Homo sapiens, HCT-116, MTT assay, 48-h incubation, n = 3.
[8] abbreviates: Homo sapiens, HepG2, MTT assay, 48-h incubation, n = 3.
[9] abbreviates: radiometric kinase assay, 33P-ATP, average of three independent experiments, read-out: IC50 Values, Aurora-A.
Where [10] appears, read: Homo sapiens, MCF7, MTT assay, 48-h incubation, n = 3.
The mark [11] stands for this setting: radiometric kinase assay, 33P-ATP, average of three independent experiments, read-out: IC50 Values, Aurora-B.

Consider `N.N.[Cl][Pt][Cl]` [Cisplatin, reference compound], for which the values for the IC50 in test [1] (setting [6]), in test [2] (setting [6]) and in test [3] (setting [6]) were 14.4 ± 1.69 µM, 12.9 ± 0.91 µM and 5.7 ± 0.76 µM, respectively.
As to `COc1cc2c3c(c4cc(OC)c(OC)cc4c2cc1OC)CN1CCC[C@@H]1C3` [Compound 1, (-)-Tylophorine], the IC50 (usually the midpoint of a concentration-inhibition curve) amounted to 142 ± 3.06 µM in test [1] (Homo sapiens, HCT-116, 48 h); 40.1 ± 2.94 µM in test [2] (Homo sapiens, HepG2, 48 h); 21.4 ± 1.24 µM in test [4]; 126 µM in test [3] (Homo sapiens, MCF7, 48 h); 18.3 ± 1.32 µM in test [5].
As for `COc1cc2c3c(c4cc(OC)c(OC)cc4c2cc1OC)[C@@H](O)[C@H]1CCCN1C3` [Compound 2, 2,3,6,7-tetramethoxy-14β-hydroxy-phenanthroindolizidine], the IC50 in test [1] (setting [7]) amounted to 75.5 µM; in test [2] (setting [8]), 35.3 ± 2.97 µM; in test [4] (setting [9]) it was 16.2 ± 1.43 µM; in test [3] (setting [10]), 50.7 ± 2.86 µM; in test [5] (setting [11]) it was 10.2 ± 1.21 µM.
As to `COc1ccc2c3c(c4cc(OC)c(OC)cc4c2c1)CN1CCC[C@H]1[C@@H]3O` [Compound 3, 3,6,7-trimethoxy-14α-hydroxy-phenanthroindolizidine], the IC50 was found to be 87 ± 3.08 µM in test [1] (Homo sapiens, HCT-116, 48 h); 23.8 ± 3.02 µM in test [2] (Homo sapiens, HepG2, 48 h); 4.1 ± 1.08 µM in test [4]; 32 ± 2.64 µM in test [3] (Homo sapiens, MCF7, 48 h); 3.6 ± 0.93 µM in test [5].
As for `COc1ccc2c3c(c4cc(OC)c(OC)cc4c2c1)C[N+]1([O-])CCC[C@H]1[C@H]3O` (stereo partly drawn) [Compound 4, 3,6,7-trimethoxy-14α-hydroxy-phenanthroindolizidine-N-Oxide], the IC50 is over 200 µM in test [1] (setting [7]); 197 µM in test [2] (setting [8]); over 100 µM in test [4] (setting [9]); over 200 µM in test [3] (setting [10]); over 100 µM in test [5] (setting [11]).
Consider `COc1ccc2c3c(c4cc(OC)c(O)cc4c2c1)CN1CCC[C@H]1[C@H]3O` [Compound 5, 14α-hydroxy-6-demethyl Tylophorinine], for which the IC50 worked out at 20.1 ± 1.94 µM in test [1] (setting [7]); 4.77 ± 2.11 µM in test [2] (setting [8]); 0.6 ± 0.72 µM in test [4] (setting [9]); 6.45 ± 2.06 µM in test [3] (setting [10]); 1.3 ± 0.58 µM in test [5] (setting [11]).
As for `COc1ccc2c3c(c4cc(OC)c(O)cc4c2c1)C[N+]1([O-])CCCC1C3O` (stereo not drawn) [Compound 6, 14α-hydroxy-6-demethyltylophorinine N-Oxide], the half-inhibitory concentration (IC50) stood at 65.6 ± 2.24 µM in test [1] (setting [7]); 15.3 ± 2.04 µM in test [2] (setting [8]); 2.6 ± 0.86 µM in test [4] (setting [9]); 12.2 ± 1.81 µM in test [3] (setting [10]); 6.5 ± 0.76 µM in test [5] (setting [11]).
In the case of `COc1ccc(C2=C(c3ccc(OC)c(OC)c3)CN3CCCC3C2)cc1OC` (centres unmarked) [Compound 7, 6,7-Bis (3,4-dimethoxyphenyl)-1,2,3,5,8,8a-hexahydroindolizine], the IC50 in test [1] (Homo sapiens, HCT-116, 48 h) is over 200 µM; in test [2] (Homo sapiens, HepG2, 48 h) it was over 200 µM; in test [4], over 100 µM; in test [3] (Homo sapiens, MCF7, 48 h), over 200 µM; in test [5], over 100 µM.
With `O=C(/C=C/c1ccc(O)c(O)c1)O[C@@H]1C[C@](O)(C(=O)O)C[C@@H](O)[C@H]1O` [Compound 8, chlorogenic acid], the IC50 in test [1] (setting [7]) was over 200 µM; in test [2] (setting [8]) it was 170 µM; in test [3] (setting [10]) it was 134 µM.
Take `COC(=O)[C@]1(O)C[C@@H](O)[C@@H](O)[C@H](OC(=O)/C=C/c2ccc(O)c(O)c2)C1` [Compound 9, chlorogenic acid methyl ester]: the IC50 in test [1] (setting [7]), in test [2] (setting [8]) and in test [3] (setting [10]) was over 200 µM throughout.
